Laboratory results published in US9873724B2, “Pro-angiogenic peptides and peptide conjugates” (Yissum Research Development Company of the Hebrew …, priority 2013, dated 2018).
Values joined by “and” are separate entries in the source; they are usually repeats but may differ in a detail not shown here. Equal entries are not always repeated. Square brackets hold non-standard residues; d marks the D form. * marks the point of attachment. Myristoyl = CCCCCCCCCCCCCC(=O)*; Nle = CCCC[C@H](N)C(=O)O

Key:
[1] = tested on: blood vessels of mice (Evans-Blue leakage); test: Inhibition of blood-vessel leakiness (Evans-Blue leakage in mice); type: in vivo, mouse
Protocol: The peptide of SEQ ID NO: 12 (Myr-Gly-Nle-Arg-Pro-Tyr-NH2), or vehicle (10% PEG-400, 90% DDW), were injected i.p. to mice, in an amount of 20 or 40 mg/Kg. 5 min, 10 min, 1 hr or 4 hrs later, 0.2 ml per 25 g mouse (40 mg/Kg) of 5 mg/ml Evans-Blue solution in double distilled water (DDW) was injected i.p. The experiment was terminated after 30 min and skull was opened to view the brain surface (“Neurosurgery”) and assess the amount of Evans-Blue leaking from blood vessels.
Principle of peripheral vessels staining: Evans-Blue; it is a poly-anionic compound having a M.W. of 960 Dalton, that binds tightly to albumin and being used to track vessel-permeability. In case of blood-vessel leakiness, the Evans-Blue-albumin complex escapes from the blood-stream into the surrounding interstitial fluid with the result of blue coloring of the extremities and the bluish appearance at the brain surface.
In a specific experiment, 40 mg/kg of peptide of SEQ ID NO: 12 or vehicle were injected, each to 2 mice, i.p. 5 min before color injection. Evans-blue, at 40 mg/kg was then injected i.p. and 30 min later “Neurosurgery” was performed and the escape of the color from the blood stream was monitored as manifested by the bluish appearance of the brain surrounding tissue.
In another experiment, 40 mg/kg of peptide SEQ ID NO: 12 were injected to mice, i.p. 1 or 4 hours before color injection (Evans-blue, 40 mg/kg i.p. for 30 minutes). Control mice received i.p. injection of vehicle ([…]) 1 hour before color injection.

[2] = tested on: Mice/Balb/c, hind limb ischemia model; test: Mouse hind limb ischemia/angiogenesis model; type: in vivo
Description: The object of this study was to determine whether administration of the test items, peptides AB-017 (SEQ ID NO: 12) and 725-106 (positive control, SEQ ID NO: 2) can enhance angiogenesis, subsequently inducing clinical and motor function improvement in a hind limb ischemia model. The principle of the test is based on changes in perfusion rate, clinical signs and histological parameters (necrosis) following administration of the test compounds.
Each tested group included 4-7 mice per group. Intraperitoneal (i.p) injection is the preferred route of administration of the test items in this model and DMSO/PEG is used as vehicle to prepare the test item solution.
Tested peptides were dissolved in 100% DMSO. Thereafter Polyethylene glycol (PEG) 400 is added to the solution. Sterile water was used to dilute to a final concentration of 0.5% DMSO/10% PEG 400/H2O to result 2 mg/ml. The solution is prepared and divided into marked aliquots and stored at −70° C.
Species/Strain: Mice/Balb/c male˜8 weeks
Animals were housed under standard laboratory conditions, air conditioned and filtered (HEPA F6/6) with adequate fresh air supply (31 air changes/hour). Animals were kept in a climate controlled environment. Temperatures range is between 20-24° C. and RH is between 30-70% with 12 hours light and 12 hours dark cycle. Animals were housed in polyethylene cages (7/cage) measuring 35×30×15 cm, with stainless steel top grill facilitating pelleted food and drinking water in plastic bottle; bedding: steam sterilized clean paddy husk. Bedding material is changed along with the cage at least twice a week. Diet: Animals are fed ad libitum a commercial rodent diet (Teklad Certified Global 18% Protein Diet cat #: 106S8216). Animals have free access to drinking water obtained from the municipality supply. Surgical Procedure: Anesthesia: Isoflurane 1.5-3% in a mixture of O2/N2O, under spontaneous respiration. All four limbs of the animal were taped down in order to facilitate the animal for surgery. Both hind legs of the animals are shaved and disinfected. On the operated leg, the right leg in all animals, an incision was made from the inguinal area to the proximity of the knee. The femoral vein/artery/nerve were exposed. The artery is dissected free from the vein, nerve and surrounding fascia. Distal to its bifurcation with the profound femoral artery, using 6-0 silk suture the artery is ligated twice, and thereafter transected between these two points (see prox-A-group model appendix I). The surgical wound is closed with 6-0 silk and the mouse is returned to its cage. The left leg is untreated control in all animals. Exclusion criteria: Only mice, whose mean flux measurement post surgery is […] and ≦50% of the pre surgical measurement, are incorporated into the study. Mice whose mean flux measurement post surgery out of this range were excluded from the study.
[formula] Drug administration: All animals were dosed by IP administration at a dose volume of 10 ml/kg.
Tests and Evaluation: Body weight: Body weights were measured prior to surgery, prior to each dosing, and prior to necropsy. Blood flow measurement: Using a Laser Doppler apparatus (Perimed PeriScan PIM II System, Technical manual available at test facility) Blood flow was measured (operated leg & control leg) while the legs are in their natural resting position at the following time points: Before surgery (after shaving) & Post surgery (Day 0); Day 1; Day 8; Day 15; Day 22; and Day 29. Each time point for each mouse consists of three measurements. Blood flow was measured, additionally, in first 10 animals at Pre before shaving. […]

[3] = tested on: C57BL mice, polymicrobial septic mouse model; test: In-vivo septic shock model (cecum ligation and puncture); details: 20 mg/Kg s.c. once a day for 5 days; FIG. 5
Protocol: The polymicrobial septic mouse model of severe sepsis (Belikoff et al. The Journal of Immunology, 2011, 186: 2444-2453), was induced in wild-type (WT) C57BL mice using cecum ligation and puncture (CLP) approach. In summary, mice were anesthetized, a 1.5-cm, longitudinal incision in the lower right quadrant of the abdomen was performed and the cecum was exposed. The distal two third of the cecum was ligated with 4-0 silk suture and punctured doubly with an 18-gauge needle. The cecum was then replaced into the peritoneal cavity and the incision was closed with surgical staples. After that, the mice were resuscitated with sterile saline injected subcutaneously and allowed free access to food and water after awaking.
Following this procedure, mice were then injected s.c. once a day, for 5 days, with either vehicle or with 20 mg/Kg of GPS-725.017 (SEQ ID NO: 12).

Myr-Gly-Nle-Arg-Pro-Tyr-NH2 (Myristoyl-G[Nle]RPY-NH2; SMILES CCCCCCCCCCCCCC(=O)NCC(=O)N[C@@H](CCCC)C(=O)N[C@@H](CCCNC(=N)N)C(=O)N1CCC[C@H]1C(=O)N[C@@H](Cc1ccc(O)cc1)C(N)=O) [AB-017]
Evans-Blue leaking from blood vessels (brain and periphery) ([1]; 20 mg/kg i.p. 10 min before Evans-blue 40 mg/kg i.p., 30 minutes): no color was leaking | Evans-Blue leaking from blood vessels (brain) ([1]; 40 mg/kg i.p. 5 min before Evans-blue 40 mg/kg i.p., read 30 min later): no color was leaking | Evans-Blue leaking from blood vessels (brain) ([1]; 40 mg/kg i.p. 1 hr before Evans-blue 40 mg/kg i.p., 30 minutes): no color was leaking | Evans-Blue leaking from blood vessels (brain) ([1]; 40 mg/kg i.p. 4 hrs before Evans-blue 40 mg/kg i.p., 30 minutes): only a partial protection | perfusion, leg function and leg necrosis (in words) ([2]; 20 mg/kg IP twice weekly for 4 weeks, vs vehicle control and 725-106): significant improvement of the ischemic leg | Functional evaluation at day 15 (individual mouse) ([2]; 20 mg/kg IP twice weekly, function score 0 (flexing the toes) to 3 (dragging of foot), one value per mouse, listed as AB-107): 3.0 (2×) and 2.0 and 0.0 (4×) | Hind limb ischemia evaluation at day 15, Average ([2]; 20 mg/kg IP twice weekly, group average of ischemic score): 0.7 | Hind limb ischemia evaluation at day 15 (individual mouse) ([2]; 20 mg/kg IP twice weekly, ischemic score 0 (absence of necrosis) to 4 (total hind-limb loss), one value per mouse, listed as AB-107): 2.0 (2×) and 0.0 (4×) and 1.0 | rescue from death in septic-shock model [3]: rescue mice from death
